Experimental data taken from patent US6063773A, “Cellulose sulfate for use as antimicrobial and contraceptive agent” (Polydex Pharmaceuticals Ltd., priority 1995, dated 2000).

Legend:
[1] = system: chlamydial infection of HeLa cells; experiment: Anti-chlamydial effect, chlamydial infection of HeLa cells; type: cell-based; settings: 100 μg/ml, FIG. 9
Method: FIG. 9 is a table illustrating anti-chlamydial effects of cellulose sulfate .
FIG. 9 illustrates anti-chlamydial effect of cellulose sulfate. At a concentration of 100 μg/ml, cellulose sulfate inhibits chlamydial infection of HeLa cells by 91%.

conception in rabbits = experiment: Contraceptive efficacy when applied vaginally; type: in vivo, rabbit
Text: FIG. 2 is a table showing the contraceptive efficacy of cellulose sulfate when applied vaginally.

[2] = rabbit, in vivo
HSV = HSV infectivity experiments; type: cell-based; settings: in vitro, FIG. 6
Text: FIG. 6 is a table providing the results of HSV infectivity experiments.

Lactobacilli = experiment: Growth of Lactobacilli; type: cell-based; settings: 1.8%, FIG. 8
Text: FIG. 8 is a table illustrating the effects of cellulose sulfate on the growth of Lactobacilli.
(§1) Moreover, cellulose sulfate of the present invention at 1.8% has no effect on normal vaginal flora, namely Lactobacilli (FIG. 8).

HIV [3] = experiment: HIV inhibition assay; type: cell-based; settings: concentration of 0.005%, in vitro, FIG. 5
Text: FIG. 5 is a table illustrating the results of HIV inhibition assay experiments.

human spermatozoa = experiment: Acrosome reaction of human spermatozoa; type: cell-based; settings: FIG. 4
Text: FIG. 4 is a table illustrating the influence of cellulose sulfate on acrosome reaction of human spermatozoa.
Acrosome refers to the anterior organelle of the sperm head necessary for fertilization of an egg by the sperm.

spermatozoa = experiment: Cervical mucus penetration experiments; type: cell-based; settings: 1% concentration, in vitro, FIG. 3
Text: FIG. 3 is a table providing the results of cervical mucus penetration experiments.

N. gonorrhea = experiment: Infectivity of N. gonorrhea; type: cell-based; settings: FIG. 7
Text: FIG. 7 is a table illustrating the effects of cellulose sulfate on the infectivity of N. gonorrhea.
as §1

rabbit spermatozoa = experiment: Fertilization outcome after artificial insemination of spermatozoa pretreated with polysaccharides; type: in vivo; settings: for anti-fertility effect of treating spermatozoa: spermatozoa treated with comparator polysaccharide
Text: FIG. 1 is a table showing fertilization outcome after artificial insemination of spermatozoa pretreated with different polysaccharides.
FIG. 1 illustrates the antifertility effect of cellulose sulfate on rabbit spermatozoa at a concentration as low as 0.1%.

[4] = system: Herpes Simplex Virus (HSV); settings: known from the art; cited from earlier work
HIV [5] = settings: known from the art; cited from earlier work
[6] = if used frequently; cited from earlier work

In the case of cellulose sulfate, the “inhibition of chlamydial infection of HeLa cells” value [1] is reported as 91%, the “percentage of fertilized oocytes compared with nonoxynol-9” value (conception in rabbits; 5% cellulose sulfate vs 2.2% commercial preparation of nonoxynol-9, intravaginal, rabbits) is reported as “as effective or more effective than nonoxynol-9” and the risk of conception (conception in rabbits; 5% formulation applied intra-vaginally in rabbits, FIG. 2) is reported as “reduces the risk of conception”. For the same substance, the vaginal irritation [2] was “minimal vaginal irritation”, the “vaginal irritation in combination with nonoxynol-9” value [2] was “does not cause an increase in the vaginal irritation of nonoxynol-9” and the “concentration inhibiting infection of human cells by HSV” value (HSV) was ≤ 0.00001%. For the same substance, the “effect on normal vaginal flora, Lactobacilli” value (Lactobacilli) was “no effect”, the “binding of HIV to human cells” value (HIV [3]) was “inhibits the binding of HIV to human cells” and the “acrosomal loss in human spermatozoa” value (human spermatozoa) was “induces acrosomal loss in human spermatozoa, and to a significantly greater extent than heparin or dextran sulfate”. For the same substance, the “penetration by spermatozoa into the cervical mucus” value (spermatozoa) was “impedes penetration by spermatozoa into the cervical mucus membrane in vitro, and to a significantly greater extent than dextran sulfate”, the “concentration that can completely kill N. gonorrhea” value (N. gonorrhea) was “at least 0.01%” and the “conception in rabbits inseminated with treated spermatozoa” value (rabbit spermatozoa; pre-treatment of spermatozoa with 1% cellulose sulfate) was “effectively prevented conception”. For the same substance, the “concentration showing antifertility effect on rabbit spermatozoa” value (rabbit spermatozoa; pre-treatment of spermatozoa, artificial insemination, FIG. 1) was ≤ 0.1%.
For dextran sulfate, the HSV inhibition [4] is given as “inhibit Herpes Simplex Virus (HSV)”, the “HIV infectivity in vitro” value (HIV [5]) is given as “inhibit HIV infectivity in vitro” and the “anti-fertility effect of treating spermatozoa” value (rabbit spermatozoa) is given as “little or no anti-fertility effect”.
With heparin [reference compound] the “anti-fertility effect of treating spermatozoa” value (rabbit spermatozoa) was “little or no anti-fertility effect”.
In the case of heparin sulfate, the HSV inhibition [4] is given as “inhibit HSV infectivity” and the “HIV infectivity in vitro” value (HIV [5]) is given as “inhibit HIV infectivity in vitro”.
In the case of nonoxynol-9, the “effect on natural vaginal flora” value [6] is given as “inactivates the natural protective vaginal flora” and the “irritation of vaginal mucus membrane” value [6] is given as “causes irritation to the mucus membrane of the vagina”.
